# Laboratory results published in patent US20240108658A1, “SYNERGISTIC STEM CELL-BASED MEDICATION FOR TREATING MYOCARDIAL INFARCTION AND RELATED APPLICATION” (SOOCHOW UNIVERSITY, priority 2021, published 2024).
# Assays:
# transplanted MSCs = assay: Survival of transplanted CM-Dil-stained mesenchymal stem cells (immunofluorescence, flow cytometry); details: MSCs + 2-DG 500 mg/kg/day intraperitoneal; 3rd day after surgery; FIG. 3
# [1] = tested on: mouse myocardial infarction modelling (LAD ligation); assay: Ventricular remodeling: HW/BW and Masson staining, myocardial infarction area/heart area; format: in vivo, C57BL/6J mice; details: MSCs + 2-DG 500 mg/kg/day intraperitoneal; 28 days after surgery; FIG. 2
# Description: The sham-operated group was only passed through the lower part of the LAD without ligation, and the rest were the same as the model group. After ligation, it turned white from the ligation site to the cardiac apex when observed with the naked eyes. The left ventricular tissue was taken for cardiac tissue staining after 1 week and obvious fibrosis was observed, indicating the successful establishment of the myocardial infarction modelling. […] Masson staining: The mice were euthanized 28 days after surgery, and left ventricular tissue was taken for cardiac tissue staining to observe the therapeutic effect. It was carried out according to the routine Masson staining steps, and the observation and photo-taking were carried out under a regular optical microscope. The image analysis software Image J was used to analyze the area of each part and calculate the myocardial infarction area/heart area.
# [2] = tested on: mouse myocardial infarction modelling (LAD ligation); assay: Cardiac ultrasound testing of cardiac function after myocardial infarction (EF, FS, LVEDD, LVESD); format: in vivo, C57BL/6J mice
# Description: The sham-operated group was only passed through the lower part of the LAD without ligation, and the rest were the same as the model group. After ligation, it turned white from the ligation site to the cardiac apex when observed with the naked eyes. The left ventricular tissue was taken for cardiac tissue staining after 1 week and obvious fibrosis was observed, indicating the successful establishment of the myocardial infarction modelling. […] After anesthesia of mice (same method as before) and depilation, the mice lied on the left side, and the probe of the cardiac ultrasound diagnostic instrument was placed on the anterior wall of the heart, a two-dimensional short-axis view of the left ventricle at the papillary muscle level was taken and the M-mode ultrasonic scanning was recorded. And left ventricular ejection fraction (EF), shortening fraction (FS), left ventricular end diastolic diameter (LVEDD), and left ventricular end systolic diameter (LVESD) were measured for three consecutive cardiac cycles.
compound,measurement,setting,value
"O=CC[C@@H](O)[C@H](O)[C@H](O)CO [2-DG, 2-Deoxy-D-glucose]",survival of transplanted MSCs,transplanted MSCs,significantly increases the survival of transplanted MSCs
same,ventricular remodeling of mice treated with MSCs after myocardial infarction,[1],improvement of ventricular remodeling
same,cardiac function of mice treated with MSCs after myocardial infarction,"[2]; MSCs 5×105 intramyocardial + 2-DG 500 mg/kg/day intraperitoneal, FIG. 1",improvement of cardiac function
same,function of MSCs in improving myocardial infarction (overall conclusion),"[2]; conclusion from Examples 1-3, MSCs + 2-DG",can effectively improve the function of MSCs in improving myocardial infarction
